Earlier results in US20190160002A1, “PROCESS FOR PREPARING STERILE ARIPIPRAZOLE FORMULATION” (Mylan Laboratories Ltd., priority 2016, published 2019).

Effect of dry heat sterilization (dry heat sterilization): melted | Effect of gamma-ray and electron beam sterilization (gamma-ray and electron beam): discolored and decomposed | Effect of steam heat sterilization on particles (particles in aqueous suspension, steam heat sterilization): tend to agglomerate
SMILES: O=C1CCc2ccc(OCCCCN3CCN(c4cccc(Cl)c4Cl)CC3)cc2N1 [aripiprazole monohydrate]
